From patent publication EP1304119A2, “Method for preventing and treating hearing loss using a neurturin protein product” (Amgen Inc., priority 1997, dated 1999)

Experiments:
cochlear hair cells [1] = assay: Organ of Corti (cochlea) explant culture, hair cell survival after cisplatin exposure (FITC-phalloidin count); format: cell-based, rat; settings: cisplatin treatment alone
Text: Triton X-100 (t-Octylphenoxypoly-ethoxyethanol. Cat. #X-100, Sigma. St. Louis, MO) • 4. Phalloidin (FITC Labeled. Cat. #P-5282, Sigma. St. Louis, MO) • 5. Vectashield (Mounting Medium, Cat. #H-1000, Vector, Burlingame, CA)
Organ of Corti explants were obtained from P3-P4 Wistar rats. Rats were decapitated, the lower jaw was cut out and skin removed. The temporal bone was collected in dissection solution, the otic capsule exposed and the bony-cartilaginous cochlear capsule was carefully separated from the temporal bone. Freed cochlea were transferred to another Petri dish with dissection solution for further dissection. […] The organ of Corti was then transferred to a 35-mm diameter Petri dish containing cold PBS supplemented with glucose and ready to be cultured. […]
For each experimental point, 2 to 4 cochlea were used. In each cochlea, the number of hair cells was counted in 2-3 section, 175 mm in length each. Only the sections in the middle turn of the cochlea were analyzed. […]

cochlear hair cells [2] = assay: In vivo hair cell loss after cisplatin, neurturin infused into the inner ear by mini-pump; design: species or system guinea pigs; settings: cisplatin 7.5 mg/kg twice
Method: The following example describes the inner ear administration of neurturin protein product to protect cochlear hair cells against ototoxicity in an animal model. The neurturin protein product is introduced into the inner ear via a cannula pushed into the scala tympani through a hole drilled in the basal turn of the cochlea. The cannula is connected to an Alzet mini-pump loaded with neurturin protein product (50 ng/ml) at a releasing rate of 0.5 µl/hour for 14 days. […] The experiment is terminated after 27 days. The hair cells are stained with FITC-phalloidin, and their number is determined in the middle turn of the cochlea (in at least 20% of the middle turn part). The results are expressed as the percent of hair cells lost for each individual guinea pig for the neurturin protein product treated ear (right ear) and the untreated ear (left ear).
The loading of a pump with methylene dye is done by holding the pump in a vertical position. A dye-loaded syringe is inserted completely into the pump, and the dye is injected until the pump overflowed. Injection of any air bubbles into the pump is avoided. A short piece of sterile V/4 tubing is placed onto the Flow Moderator. Neurturin protein product is loaded at a concentration of 50 ng/ml in PBS + 0.1% BSA, in a total volume of 230 µl, to within about 10 mm of the cannula tip, using a syringe connected with V/4 tubing. […]

cochlear hair cells [3] = assay: Organ of Corti (cochlea) explant culture, hair cell survival after neomycin exposure (FITC-phalloidin count); format: cell-based, rat; settings: for Hair cell survival (% of untreated): Neomycin alone (0.6 mM), added 24 hours after plating, 3 days exposure, mean ± SD, 4320 min, 600 µM
Text: • 1. Neomycin solution (Cat. #N1142, Sigma. St. […] Cat. #X-100, Sigma. St. Louis, MO) • 4. Phalloidin (FITC Labeled. Cat. #P-5282, Sigma. St. Louis, MO) • 5. Vectashield (Mounting Medium, Cat. #H-1000, Vector, Burlingame, CA)
Organ of Corti explants were obtained from P3-P4 Wistar rats. Rats were decapitated, the lower jaw was cut out and skin removed. The temporal bone was collected in dissection solution, the otic capsule exposed and the bony-cartilaginous cochlear capsule was carefully separated from the temporal bone. Freed cochlea were transferred to another Petri dish with dissection solution for further dissection. Intact organs of Corti were obtained by using a fine forceps to hold central VIII nerve tissue and remove it out, then the stria vascular membrane was carefully stripped off, starting from the apex or base. The organ of Corti was then transferred to a 35-mm diameter Petri dish containing cold PBS supplemented with glucose and ready to be cultured.
Cochlea explants were cultured in uncoated 96 well microplates. A single organ of Corti was placed in a well and was kept floating in the medium.
Explants were kept in normal medium for 24 hours (90 µl/well). Neurturin protein solution (10 µl) was added to the 'treated' cultures, and 10 µl of medium were added to controls. After 24 hours of incubation, the media were changed and the explants were exposed to ototoxin-containing medium (90 µl), with neurturin protein solution (10µl) or without (control). The cultures were incubated for an additional 3 days. […]
To identify and count hair cells in the organ of Corti, a direct immunostaining method was used to label the actin present naturally in the stereocilia bundles of the hair cells. […] The explants were . observed under a Nikon Diaphot-300 inverted fluorescence microscope, using FITC filters and fluorescence optics.
For each experimental point, 2 to 4 cochlea were used. In each cochlea, the number of hair cells was counted in 2-3 section, […] in length each. Only the sections in the middle turn of the cochlea were analyzed. […]

Molecule	morphology of the organs of Corti (four-row structure) (cochlear hair cells [1])	loss of hair cells in the left ear (untreated ear) (cochlear hair cells [2])	Hair cell survival (% of untreated) (cochlear hair cells [3])	Hair cell survival (% of untreated) (cochlear hair cells [3]; listed as neomycin)	morphology of the organs of Corti (four-row structure) (cochlear hair cells [3]; neomycin treatment alone, spared hair cells)
N.N.[Cl][Pt][Cl] [Cisplatin]	caused a marked disruption of the four-row-structure	approximately 40%	–	–	–
Neomycin	–	–	5.9 ± 4.7 n=23%	6%	still organized in the typical four row structure
